Results on one compound are retold here after patent publication US11572590B2, “Methods for evaluating tumor cell spheroids using 3D microfluidic cell culture device” (Dana-Farber Cancer Institute, Inc., priority 2017, dated 2023).

Holding throughout (assay): SelectScreen Kinase Profiling, single point inhibition and IC50 for off-target kinases
Holding throughout (type): biochemical

The target of assay [1] is off-target kinases (Homo sapiens, UniProt Q9P286). As to conditions: PAK7 (KIAA1264), ATP Km app, ZLYTE.
Assay [2] deals with T1, off-target kinases (Homo sapiens, UniProt P43403).
T1 sequence (P43403 1-619): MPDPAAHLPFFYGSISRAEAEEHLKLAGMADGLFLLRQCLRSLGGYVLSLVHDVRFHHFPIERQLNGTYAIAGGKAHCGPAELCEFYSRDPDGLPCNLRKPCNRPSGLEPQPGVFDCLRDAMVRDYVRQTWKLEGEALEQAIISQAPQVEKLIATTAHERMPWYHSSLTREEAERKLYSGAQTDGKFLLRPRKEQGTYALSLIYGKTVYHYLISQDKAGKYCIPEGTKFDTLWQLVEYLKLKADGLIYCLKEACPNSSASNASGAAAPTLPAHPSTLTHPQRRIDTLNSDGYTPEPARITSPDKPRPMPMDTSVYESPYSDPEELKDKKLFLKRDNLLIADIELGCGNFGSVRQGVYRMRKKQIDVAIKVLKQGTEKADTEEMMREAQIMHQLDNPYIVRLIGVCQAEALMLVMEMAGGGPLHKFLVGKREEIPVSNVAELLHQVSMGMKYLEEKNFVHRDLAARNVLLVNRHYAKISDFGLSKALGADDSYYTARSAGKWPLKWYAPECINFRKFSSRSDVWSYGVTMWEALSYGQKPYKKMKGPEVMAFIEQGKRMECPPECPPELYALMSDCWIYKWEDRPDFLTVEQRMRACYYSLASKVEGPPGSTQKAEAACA
As to conditions: ZAP70, ZLYTE, ATP Km app.

In assay [3] the target is T2, off-target kinases (Homo sapiens, UniProt Q9H2K8).
T2 sequence (Q9H2K8 1-898): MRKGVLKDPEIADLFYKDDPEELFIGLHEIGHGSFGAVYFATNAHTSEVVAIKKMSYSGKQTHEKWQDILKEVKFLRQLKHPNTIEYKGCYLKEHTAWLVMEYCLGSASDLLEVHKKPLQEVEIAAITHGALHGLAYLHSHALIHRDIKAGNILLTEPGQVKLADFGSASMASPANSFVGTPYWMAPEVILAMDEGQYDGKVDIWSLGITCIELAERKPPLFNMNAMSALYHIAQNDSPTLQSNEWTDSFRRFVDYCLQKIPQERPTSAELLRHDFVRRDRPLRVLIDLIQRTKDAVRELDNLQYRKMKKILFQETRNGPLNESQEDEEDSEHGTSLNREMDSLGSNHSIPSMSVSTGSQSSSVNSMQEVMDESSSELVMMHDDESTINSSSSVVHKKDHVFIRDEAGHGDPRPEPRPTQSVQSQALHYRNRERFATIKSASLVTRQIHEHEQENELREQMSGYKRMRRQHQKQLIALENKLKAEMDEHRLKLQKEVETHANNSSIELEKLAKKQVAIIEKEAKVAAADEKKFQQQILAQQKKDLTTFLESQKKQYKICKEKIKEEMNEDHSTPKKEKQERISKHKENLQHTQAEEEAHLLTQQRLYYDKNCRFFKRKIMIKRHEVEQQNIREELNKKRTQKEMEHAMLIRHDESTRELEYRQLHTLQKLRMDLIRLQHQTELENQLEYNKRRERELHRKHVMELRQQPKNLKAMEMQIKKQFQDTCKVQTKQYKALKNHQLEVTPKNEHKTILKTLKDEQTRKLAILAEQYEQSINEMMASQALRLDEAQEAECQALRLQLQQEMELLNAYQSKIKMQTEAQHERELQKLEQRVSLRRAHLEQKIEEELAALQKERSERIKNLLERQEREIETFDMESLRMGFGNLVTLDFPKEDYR
As to conditions: TAOK3 (JIK), LanthaScreen Binding. For orientation: TR-FRET usually uses a lanthanide donor and a delayed reading to cut background.

For assay [4], the target named is off-target kinases (Homo sapiens, UniProt Q9H2G2). As to conditions: SLK, LanthaScreen Binding.
For assay [5], the target named is off-target kinases (Homo sapiens, UniProt P80192). As to conditions: MAP3K9 (MLK1), ATP Km app, ZLYTE.

Each structure is given as a SMILES string. Read-outs that look alike come from different tables or passages of the source.

Chain of off-target kinases (Homo sapiens, UniProt Q9H2G2) (Q9H2G2 whole entry): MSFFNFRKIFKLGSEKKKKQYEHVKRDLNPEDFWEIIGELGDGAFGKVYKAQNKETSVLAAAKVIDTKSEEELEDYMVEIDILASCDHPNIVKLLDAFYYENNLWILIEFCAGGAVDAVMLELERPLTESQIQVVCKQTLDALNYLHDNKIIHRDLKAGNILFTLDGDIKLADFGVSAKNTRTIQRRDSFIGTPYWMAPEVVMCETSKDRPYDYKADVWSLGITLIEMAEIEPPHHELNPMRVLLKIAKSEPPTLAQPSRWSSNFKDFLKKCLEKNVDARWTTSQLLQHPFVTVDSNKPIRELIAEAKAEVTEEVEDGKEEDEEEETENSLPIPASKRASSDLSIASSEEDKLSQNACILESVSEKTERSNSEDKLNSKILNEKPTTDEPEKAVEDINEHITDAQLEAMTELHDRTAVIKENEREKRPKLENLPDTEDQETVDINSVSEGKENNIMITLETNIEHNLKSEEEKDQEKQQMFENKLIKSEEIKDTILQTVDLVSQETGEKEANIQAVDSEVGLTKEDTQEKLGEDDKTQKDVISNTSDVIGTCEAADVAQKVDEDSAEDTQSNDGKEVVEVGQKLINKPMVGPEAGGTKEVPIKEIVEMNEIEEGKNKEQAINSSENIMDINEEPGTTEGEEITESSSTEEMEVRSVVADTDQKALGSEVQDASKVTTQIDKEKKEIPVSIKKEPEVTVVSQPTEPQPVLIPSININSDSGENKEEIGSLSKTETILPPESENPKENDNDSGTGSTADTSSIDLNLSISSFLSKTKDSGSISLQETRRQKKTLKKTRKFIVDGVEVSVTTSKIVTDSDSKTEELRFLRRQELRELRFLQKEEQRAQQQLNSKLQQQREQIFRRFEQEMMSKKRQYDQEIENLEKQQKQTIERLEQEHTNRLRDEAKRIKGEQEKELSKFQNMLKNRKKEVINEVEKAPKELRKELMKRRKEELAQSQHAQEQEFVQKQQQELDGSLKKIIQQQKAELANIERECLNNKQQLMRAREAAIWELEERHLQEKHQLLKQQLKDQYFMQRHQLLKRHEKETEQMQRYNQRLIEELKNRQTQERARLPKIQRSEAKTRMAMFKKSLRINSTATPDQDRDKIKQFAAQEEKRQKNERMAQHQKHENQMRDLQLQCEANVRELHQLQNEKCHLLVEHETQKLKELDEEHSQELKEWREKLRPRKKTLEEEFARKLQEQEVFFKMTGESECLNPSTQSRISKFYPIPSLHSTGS
Chain of off-target kinases (Homo sapiens, UniProt P80192) (P80192 whole entry): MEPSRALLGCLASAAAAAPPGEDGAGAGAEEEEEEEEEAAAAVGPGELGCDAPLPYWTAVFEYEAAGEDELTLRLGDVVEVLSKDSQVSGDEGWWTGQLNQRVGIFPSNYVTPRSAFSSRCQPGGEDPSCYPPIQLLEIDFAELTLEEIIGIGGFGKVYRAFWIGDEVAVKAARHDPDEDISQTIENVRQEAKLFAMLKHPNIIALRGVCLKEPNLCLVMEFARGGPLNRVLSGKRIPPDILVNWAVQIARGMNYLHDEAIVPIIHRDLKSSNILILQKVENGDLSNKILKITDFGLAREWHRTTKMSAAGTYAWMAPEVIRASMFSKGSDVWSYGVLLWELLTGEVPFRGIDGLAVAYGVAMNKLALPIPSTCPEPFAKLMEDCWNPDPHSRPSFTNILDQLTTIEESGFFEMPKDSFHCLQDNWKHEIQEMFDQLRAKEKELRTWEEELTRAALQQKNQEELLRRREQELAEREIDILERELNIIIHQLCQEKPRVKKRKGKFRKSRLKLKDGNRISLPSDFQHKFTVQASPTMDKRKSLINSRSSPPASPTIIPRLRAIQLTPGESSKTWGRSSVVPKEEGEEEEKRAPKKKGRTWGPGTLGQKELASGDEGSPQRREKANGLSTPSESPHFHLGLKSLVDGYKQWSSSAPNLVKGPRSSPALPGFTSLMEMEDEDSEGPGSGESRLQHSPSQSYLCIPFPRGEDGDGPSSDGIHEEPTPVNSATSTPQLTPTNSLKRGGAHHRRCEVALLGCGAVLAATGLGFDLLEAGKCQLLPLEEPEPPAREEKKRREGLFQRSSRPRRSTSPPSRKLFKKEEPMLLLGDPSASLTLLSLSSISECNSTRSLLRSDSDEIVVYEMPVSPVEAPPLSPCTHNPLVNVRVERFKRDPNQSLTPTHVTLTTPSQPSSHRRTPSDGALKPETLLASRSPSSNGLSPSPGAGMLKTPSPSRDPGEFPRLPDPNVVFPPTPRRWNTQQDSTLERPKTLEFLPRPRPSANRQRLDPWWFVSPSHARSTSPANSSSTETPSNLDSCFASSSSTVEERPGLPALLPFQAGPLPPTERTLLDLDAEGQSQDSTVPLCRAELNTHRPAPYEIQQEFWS
Chain of off-target kinases (Homo sapiens, UniProt Q9P286) (Q9P286 whole entry): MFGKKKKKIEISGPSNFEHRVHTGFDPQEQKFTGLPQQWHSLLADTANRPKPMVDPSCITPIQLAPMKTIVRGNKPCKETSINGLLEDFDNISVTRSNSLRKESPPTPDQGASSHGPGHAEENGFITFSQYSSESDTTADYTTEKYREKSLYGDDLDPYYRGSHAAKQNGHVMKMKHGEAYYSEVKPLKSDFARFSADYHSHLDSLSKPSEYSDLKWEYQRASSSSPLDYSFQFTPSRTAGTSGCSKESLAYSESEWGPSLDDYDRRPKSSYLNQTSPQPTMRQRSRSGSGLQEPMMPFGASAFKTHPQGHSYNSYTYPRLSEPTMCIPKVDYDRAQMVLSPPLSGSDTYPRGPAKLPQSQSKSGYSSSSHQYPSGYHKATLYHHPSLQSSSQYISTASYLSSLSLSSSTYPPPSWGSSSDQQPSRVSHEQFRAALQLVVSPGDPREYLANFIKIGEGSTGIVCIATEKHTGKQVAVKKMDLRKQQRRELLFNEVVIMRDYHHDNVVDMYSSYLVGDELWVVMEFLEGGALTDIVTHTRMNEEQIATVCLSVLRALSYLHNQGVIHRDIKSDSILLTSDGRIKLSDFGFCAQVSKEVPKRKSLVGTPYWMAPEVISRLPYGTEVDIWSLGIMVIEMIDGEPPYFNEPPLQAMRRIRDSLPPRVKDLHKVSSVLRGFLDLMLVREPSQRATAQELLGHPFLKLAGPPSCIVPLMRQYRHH

For the compound `N#Cc1cc(-c2ncnc(Nc3ccc(N4CCN(C5COC5)CC4)cc3)n2)ccc1OC1CCOCC1` [Compound 1, 5-(4-((4-(4-(oxetan-3-yl)piperazin-1-yl)phenyl)amino)-1,3,5-triazin-2-yl)-2-((tetrahydro-2H-pyran-4-yl)oxy)benzonitrile], the inhibition in assay [1] (read-out: % Inhibition 1) turned out to be 77%; in assay [1] (read-out: % Inhibition 2), 79%; in assay [1] (read-out: % Inhibition Avg), 78%; in assay [2] (read-out: % Inhibition 1), 4%; in assay [2] (read-out: % Inhibition 2), 4%; in assay [2] (read-out: % Inhibition Avg), 4%. The inhibition was determined as 3% in assay [3] (read-out: % Inhibition 1); 1% in assay [3] (read-out: % Inhibition 2); 2% in assay [3] (read-out: % Inhibition Avg); 29% in assay [4] (read-out: % Inhibition 1); 32% in assay [4] (read-out: % Inhibition 2); 30% in assay [4] (read-out: % Inhibition Avg). The inhibition was determined as 68% in assay [5] (read-out: % Inhibition 1), 73% in assay [5] (read-out: % Inhibition 2) and 70% in assay [5] (read-out: % Inhibition Avg).

One may read the inhibition as how much of the control response was suppressed.
